Our source for the TGI and GI50 values is PubChem BioAssay (NCI).

SMILES strings stand for the structures. Several values for one entry are separate records, joined by “and”; a condition that tells them apart may be missing. Identical values can stand only once.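 Cells were grown in 96-well plates and exposed to each compound for 48 hours at five concentrations; endpoints were interpolated linearly between bracketing concentrations, or set to the highest concentration if not reached. GI50 marks 50% less growth. TGI: total growth inhibition.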

What all share (experiment): DTP human tumour cell line panel, 48 h
Assay [1] has as its system SK-MEL-28 melanoma.
Assay [2] relates to ACHN renal.
In assay [3] the test system is M14 melanoma.
Assay [4] concerns RPMI-8226 leukemia.
Assay [5] concerns SF-539 CNS.
Assay [6] deals with CCRF-CEM leukemia.
Assay [7] has as its system SK-OV-3 ovarian.
The test system of assay [8] is RXF 393 renal.
The subject of assay [9] is LOX IMVI melanoma.

A word on the TGI: it is the concentration at which net growth stops. Read a high TGI as lower sensitivity of the cells. Usually GI50 stands for the concentration at which growth is held to half of that of the control.

Take `Nn1c(-c2cccc(Cl)c2)nc2ccccc2c1=O`: the TGI in assay [1], in assay [2], in assay [3], in [4], in assay [5] and in assay [6] was over 100 µM each time. Besides, the TGI in assay [7] was over 100 µM.
Turning to `CCC[CH2][Sn]([CH2]CCC)([O]C(=O)c1cc(F)ccc1F)[O]C(=O)c1cc(F)ccc1F`, the GI50 in assay [1] was 1.09 µM; in assay [8] it was 0.326 µM; in assay [2], 1.4 µM; in assay [3] it was 1.47 µM; in [9], 581 nM; in assay [5], 1.4 µM. Besides, the GI50 is 0.257 µM in assay [6] and 2.79 µM in assay [7]. Besides, the concentration for total growth inhibition (TGI) in [1] is 2.32 µM; in assay [8], 1.12 µM; in assay [2], 2.7 µM; in assay [3], 2.81 µM; in [9], 1.85 µM; in [5], 2.81 µM. Also, the TGI in assay [6] was 1.25 µM; in [7], 5.64 µM.
With `Cc1ccc(C2[C@H]3C(=O)N(c4ccc(Cc5ccc(N6C(=O)[C@@H]7ON(c8ccccc8)C(c8ccc(C)cc8)[C@@H]7C6=O)cc5)cc4)C(=O)[C@H]3ON2c2ccccc2)cc1` (stereo partly specified), the TGI in [1], in assay [8], in assay [2], in assay [3], in assay [9] and in [4] was over 100 µM in each case. Moreover, the TGI in assay [5], in assay [6] and in [7] was over 100 µM each time.
Take `C[C@]12Cc3conc3C(O)=C1CC[C@@H]1C2CC[C@@]2(C)C1CC[C@]2(C)O` (stereo partly specified): the TGI in [1] turned out to be 83 µM; in [8] it was 44 µM; in assay [2] it was 89.5 µM; in assay [3] it was 36.2 µM; in assay [9], 22.7 µM; in assay [4], 22.7 µM. The TGI came out at 60.6 µM in assay [5], 46.5 µM in assay [6] and 57.4 µM in assay [7].
Consider `C[C@]12CC(C=O)C(=O)C(O)=C1CC[C@@H]1C2CC[C@@]2(C)C1CC[C@]2(C)O` (stereo partly specified), for which the TGI in assay [1] amounted to 68.1 µM; in assay [8], 37.3 µM; in assay [2], 51.2 µM; in assay [3], 35 µM; in [9], 24.7 µM; in [4], 48.8 µM. Besides, the figures for the TGI in [5] and in [7] were 35.1 µM and 46.3 µM, respectively.
With `NC(=O)C(=O)C1C(=O)N(c2ccccc2)N=C1N` (stereo unspecified), the TGI in assay [1], in assay [2], in [3], in assay [9], in assay [4] and in [5] was over 100 µM each time. In [7], this compound registered a TGI of over 100 µM.
Take `Cc1cc(Cl)ccc1N=C1NC(=O)C(CC(=O)Nc2cccc(C)c2C)S1` (stereo unspecified): the TGI was over 100 µM in assay [1]; 73.6 µM in assay [2]; 50.9 µM in assay [3]; 80.6 µM in [9]; 64.2 µM in assay [4]; 43.4 µM in assay [5]. Besides, the concentration for total growth inhibition (TGI) was over 100 µM in [6] and 55.9 µM in assay [7].
Turning to `COc1cc([C@@H]2OC(=O)C3C2C(=O)O[C@H]3c2ccc(O)c(OC)c2)ccc1O` (stereo partly specified), the TGI in assay [1], in assay [8], in [2], in assay [3], in assay [9] and in assay [4] was over 100 µM in each case. Moreover, the TGI in assay [5], in [6] and in assay [7] was over 100 µM each time.
On to `CCCCCCCCC(C)CCCCCCCCC(=O)OCC(COP(=O)([O-])OCC[N+](C)(C)C)OC(=O)CCCCCCCCC(C)CCCCCCCC` (stereo unspecified), for which the TGI in assay [1], in assay [8], in assay [2], in assay [3], in assay [9] and in [4] was over 100 µM each time. The TGI in assay [6] and in assay [7] was over 100 µM each time.
For the compound `O=[N+]([O-])c1ccc(C2SCc3nc4ccccc4n32)cc1` (stereo unspecified), the TGI in [1], in [8], in [2], in assay [9], in assay [5] and in [6] was over 100 µM each time. For the same compound, the TGI in [7] is over 100 µM.
As for `O=C(O)/C(Cl)=C(Cl)/C=N/NC(=O)c1cc2ccccc2cc1O`, the concentration for total growth inhibition (TGI) in assay [1] was over 100 µM; in [2] it was over 100 µM; in [3], 56 µM; in assay [4] it was over 100 µM; in assay [5], over 100 µM; in assay [6] it was 51.7 µM. This compound also had a TGI in assay [7] of over 100 µM.
`O=C(Nc1ccc([N+](=O)[O-])cc1[N+](=O)[O-])C(=O)C(C(=O)c1ccc(Cl)c(Cl)c1)C1OC(=O)c2ccccc21` (stereo unspecified): the TGI in [8] is 24.8 µM; in [2], over 100 µM; in assay [9] it was 41.4 µM; in [4] it was over 100 µM; in assay [6] it was 95 µM; in [7], 82.5 µM.
Take `CCCS(=O)c1nc(COC(=O)NC)c(COC(=O)NC)n1C` (stereo unspecified): the TGI in assay [1], in [8], in [3], in [9], in assay [4] and in assay [5] was over 100 µM throughout. The TGI in assay [6] and in assay [7] was over 100 µM each time.
Regarding `COc1ccc(/C=C\c2cc(OC)c(OC)c(OC)c2)cc1OC(=O)CC(N)C(=O)O` (stereo unspecified), the GI50 was 0.000728 µM in assay [1]; 0.00122 µM in assay [8]; 0.000709 µM in assay [2]; 0.00046 µM in assay [3]; 0.0639 nM in assay [9]; 0.000427 µM in assay [5]. Also, in assay [6], the GI50 was 0.000495 µM. Moreover, the TGI was over 100 µM in assay [1]; over 100 µM in [2]; 0.00577 µM and 0.0374 µM in assay [5].
Take `O=C1NC2C3CC(OCc4ccccc4)(OCc4ccccc4)C2OC3O1` (stereo unspecified): the TGI in assay [1], in [3], in assay [9], in assay [4], in [5] and in [6] was over 50 µM each time. In assay [7], this compound had a total growth inhibition concentration (TGI) of over 50 µM.
With `COC(=O)C12C34C=CC5(CCC6(C=CC1(CC3)O6)C52C(=O)OC)O4` (stereo unspecified), the TGI in [1], in [8], in assay [2], in assay [9], in [5] and in assay [6] was over 100 µM each time. This compound returned a TGI in assay [7] of over 100 µM.
As to `O=C(COC(=O)c1cccc2c(=O)c3ccccc3[nH]c12)Nc1ccc(Cl)cc1`, the TGI in assay [1] is over 100 µM; in [8], 66 µM; in assay [2], over 100 µM; in assay [3] it was over 100 µM; in assay [9] it was over 100 µM; in [5] it was over 100 µM. For the same compound, the TGI in assay [6] and in assay [7] was over 100 µM throughout.
On to `C=CC(=O)Nc1ccccc1CC(c1c[nH]c2ccccc12)c1c[nH]c2ccccc12`, for which the TGI in assay [1] was 32.1 µM; in [3] it was 30.3 µM; in assay [9], 36.3 µM; in assay [4], 50.5 µM; in assay [5] it was 36.6 µM; in assay [6], 54.2 µM. For the same compound, the TGI in [7] was 45.7 µM.
In the case of `O=NN1CCN=C1c1ccc([N+](=O)[O-])cc1`, the TGI in [1], in assay [8], in assay [2], in [3], in assay [9] and in assay [4] was over 100 µM each time. In addition, the TGI in assay [5] and in assay [7] was over 100 µM each time.
Regarding `COc1cc2c3c(n([C@@H]4CCOC4)c(=O)c2cc1OC)-c1cc2c(cc1C3=O)OCO2`, the GI50 was under 0.01 µM in assay [3], 0.0127 µM in assay [4], under 0.01 µM in assay [5] and under 0.01 µM in [6]. Further, the TGI in assay [3] was over 100 µM; in [4], over 100 µM; in [5], 0.0208 µM; in assay [6], over 100 µM.
Regarding `COc1ccc(NC(=O)c2oc3cc(O)ccc3c(=O)c2C)c([N+](=O)[O-])c1`, the TGI in assay [1], in assay [8], in assay [2], in [3], in assay [9] and in assay [5] was over 100 µM in each case. The TGI in assay [6] and in assay [7] was over 100 µM in each case.
For the compound `CCCCCCCCCCCCCCCCCCOCC(C[N+]1(C)CCC(O)CC1)OCC` (stereo unspecified), the TGI in [1] stood at 33.5 µM; in [3], 23.4 µM; in [4], 11.5 µM; in assay [5], 32.8 µM; in [6] it was 5.55 µM; in assay [7] it was 8.22 µM.
As for `CC1(C2COC(=O)C2)SCCCS1` (stereo unspecified), the TGI in assay [1], in [8], in assay [2], in assay [3], in assay [9] and in assay [5] was over 100 µM each time. In addition, the TGI in assay [6] and in assay [7] was over 100 µM in each case.
